# Laboratory results published in PMC6804243, “Small-Molecule Inhibition of UBE2T/FANCL-Mediated Ubiquitylation in the Fanconi Anemia Pathway” (ACS Chemical Biology, 2019).
# Tests used:
# Assay type in all cases: cell-based
# [1] = Tolerance / cytotoxicity of compounds in U2OS cells; details: human, u2os cells, 8 h assay, read-out: concentration above which cytotoxic
# Procedure: U2OS cells were treated with HU and the formation of mUb-FANCD2 in the presence of CU 1, CU2, and CU9 was evaluated relative to a DMSO control. Following a 1-h preincubation with the compounds, cells were treated with 2.5 mM of HU for 24 h. […] Accordingly, cells were treated with a higher concentration of compounds in further experiments.
# [2] = system: pS345 CHK1, γH2AX, pS824 KAP1, PARP1; assay: Immunoblot of DNA damage biomarkers (pS345 CHK1, γH2AX, pS824 KAP1, PARP1 cleavage) in U2OS cells; details: 8 h, CU1 200 μM or CU2 500 μM; for levels of pS824 KAP1 / levels of pS345 CHK1: HU 2.5 mM; for levels of pS345 CHK1: relative to DMSO control; for levels of γH2AX (immunoblot): in combination with HU 2.5 mM, relative to HU plus DMSO
# Procedure: As DNA damage induced by HU is cell-cycle-dependent, it was necessary to establish whether CU1 and CU2 might simply prevent cells from entering the S-phase, which would also manifest itself as a reduction in mUb-FANCD2. This was determined by analysis of several biomarkers linked to DNA damage in cycling cells. Activated CHK1 (pS345 CHK1) phosphorylates CDC25A, inducing the transient arrest of cells in the S-phase, or in G2 before the onset of mitosis.[18] […] These observations were also confirmed by cell cycle analysis.
# Following the generation of DNA DSBs, ATM, ATR, and/or DNA-PKcs mediated phosphorylation of histone H2AX generates the phosphorylated species, γH2AX.[19] […] Following HU treatment, DSBs are formed if stalled replication forks are not stabilized and subsequently collapse. Therefore, we concluded that CU1 and CU2 appeared to act by impairing the ability of cells to stabilize and repair stalled replication forks. This is consistent with CU1 and CU2 inhibiting the formation of mUb-FANCD2, which would otherwise play a role in stabilizing stalled replication forks, thus preventing their collapse and the formation of DSBs.
# In response to DSB formation, the transcriptional repressor and RING finger protein, KAP1, is released from chromatin, following its ATM-mediated phosphorylation on Ser824.[20] […] An increase in the number of DSBs could also have been caused by apoptosis. In cells undergoing apoptosis, PARP1 is cleaved from a full-length 116 kDa protein into 89 and 24 kDa polypeptides by caspase-3.[21]
# (§1) Reaction mixtures were incubated for the indicated time at 37 °C and stopped by the addition of 2X reducing SDS -PAGE sample buffer, separated on NuPAGE Novex 4 –12% Bis/Tris gradient gels (Invitrogen) and visualized by Western blotting using the indicated antibodies (Table S3).
# (§2) Cell culture. U2OS cells were cultured at 37 °C in a humidified atmosphere and 5% (v/v) CO2 in Dulbecco's Modified Eagle Medium (DMEM; Sigma-Aldrich) supplemented with 10% (v/v) fetal bovine serum (FBS), 100 units/ml of penicillin, […] of streptomycin and 292 μg/mL L-glutamine.
# (§3) Cell extract preparation and immunoblotting. U2OS cells were lysed in buffer containing 50 mM Tris-HCl pH 7.5, 2% SDS, 10 mM NEM, cocktail protease inhibitor (Roche) and phosphatase inhibitor cocktail followed by sonication 100 µg of extracts were boiled for 5 mins at 95 °C in 5X loading buffer and loaded onto NuPAGE Novex 4–12% Bis/Tris gradient gels
# (§4) (Invitrogen), or NuPAGE Novex 3-8% Tris/Acetate gradient gels (Invitrogen) for detection of mUb-FANCD2. After separation the gels were transferred to PVDF and the membranes were blocked with Tris-buffered saline containing 0.1% (v/v) Tween-20 (TBST) and 5% (v/v) bovine serum albumin (BSA) and incubated with the indicated primary and secondary antibodies. mUb-FANCD2 intensity was quantified using Image Studio (LI-COR).
# (§5) IncuCyte cell proliferation assays. 2000 U2OS cells were seeded per well in 96-well plates and treated with compounds 24 hours afterwards. After 1 hour of compound treatment, 15 µM carboplatin (Sigma-Aldrich) was added and the cells were cultured in an incubator with an IncuCyte microscopy -platform (Essen BioScience). Phase -contrast images were acquired every 6 hours for 8 days until DMSO-carboplatin treated cells reached >80% confluence. Cell proliferation was monitored as the occupied area (% confluence) of cell images over time and calculated as percentage confluence over time. Cell confluency percentages were calculated using the integrated Cell Player software and results were analysed with Prism 6 (GraphPad Software).
# U2OS cells = assay: IncuCyte cell proliferation assay
# Procedure: Figure 4 Further cell-based assays with CU1 and CU2: (a, b) Representative immunofluorescence images of U2OS cells treated with HU (2.5 mM, 8 h) or cisplatin (10 μM, 8 h) in the presence or absence of CU1 (200 μM) or CU2 (500 μM). (c) Quantification of the number of FANCD2 foci in cells treated as in panels (a) and (b). Data accumulated over three independent experiments, each consisting of three technical replicas. (d) IncuCyte analysis of U2OS cells treated with or without carboplatin (15 μM) and CU2 (250 μM). Mean calculated from three wells, four images per well. (HU = DMSO + HU, cisplatin = DMSO + cisplatin).
# Finally, to investigate if CU1 and CU2 could sensitize cells to a more clinically relevant chemotherapeutic agent, quantitative live cell analyses were performed using the IncuCyte platform. As the FA pathway is involved in the repair of ICLs, cells were treated with the ICL-inducing chemotherapeutic drug, carboplatin. For this experiment, U2OS cells were seeded at a relatively low (<10%) density and preincubated with CU1 or CU2 for 1 h. Carboplatin was then added to the cells and images were taken every 6 h for 8 days in order to monitor growth and proliferation of the cells.
# as §1, §2, §3, §4, §5
compound,measurement,setting,value
NCCN1C(=O)CC[C@H]2CN(Cc3cccc(-c4ccco4)c3)CC[C@H]21 [CU1],MCC at 8 h,[1],> 300 µM
same,levels of pS824 KAP1,[2],increased levels of pS824 KAP1
same,levels of pS345 CHK1,[2],Comparable levels of pS345 CHK1
same,levels of γH2AX (immunoblot),[2],somewhat increased the levels of γH2AX
same,combined effect with carboplatin on cell growth,U2OS cells; 50 μM CU1 with 15 μM carboplatin,far less pronounced than that observed for CU2
same,concentrations that strongly inhibit cell growth,U2OS cells; IncuCyte,> 50 µM
CCN1CCN(c2cc(C)nc3nc(CN4CCCCC4C)nn23)CC1 (stereo not shown) [CU2],levels of pS824 KAP1,[2],increased levels of pS824 KAP1
same,levels of pS345 CHK1,[2],Comparable levels of pS345 CHK1
same,levels of γH2AX (immunoblot),[2],somewhat increased the levels of γH2AX
same,confluency,"U2OS cells; 250 μM CU2 combined with 15 μM carboplatin, after 8 days",< 50%
same,effect on cell growth,U2OS cells; CU2 250 μM alone,minimal effect on cell growth
same,confluency,"U2OS cells; CU2 250 μM alone, after 6 days",100%
same,effect on cells upon longer cellular exposures,"U2OS cells; CU2 500 μM, IncuCyte, up to 8 days",cytotoxic/cytostatic
